According to patent US9677051B2, “Erythroid production” (The Common Services Agency, priority 2012, dated 2017):
Entries after “also recorded” stand apart in the source; their conditions may differ.

Assays:
[1] = test system: human pluripotent stem cells (hPSC); test: erythroid differentiation culture of hPSCs, overall cell amplification; assay type: cell-based; details: for rate of cell amplification in the late stage of the method: SR1 1 μM at day 5, SC1 500 nM at day 14 and 250 nM at day 16; for cell amplification, combination of GSK3β inhibitor and IBMX: GSK3 inhibitor combined with IBMX; for quality and quantity of erythrocytic cells produced: GSK3β inhibitor day 0 to day 3, used along with Wnt3a; for replacement of recombinant Wnt3A by GSK3β inhibitor: added during day 0 to day 3 of the differentiation protocol; for potency: concentration of GSK3β inhibitor: early stage of differentiation; for overall amplification of differentiating erythropoietic cultures, side by side comparison: Table 1, addition of GSK3β inhibitors, IBMX or both; for expansion in cell number / yield of differentiated cells: prolonged treatment d0 to d5, iPSC or hESC
Procedure: (§1) The human pluripotent stem cells (hPSC) are maintained undifferentiated in Stempro medium (Life Technologies) on Cellstart (Life Technologies) and passaged approximately every 7 days, depending on their confluence, using the EZpassage tool (Life Technologies).
(§2) For differentiation, confluent hPSC are cut into squares with the EZpassage tool (Life Technologies) and plated at 500×10^3/well on Ultra low adherence six well plates (Corning) in 3 ml/well of Stemline II (Sigma) to allow them to form embryoid bodies (EBs).
(§3) On day 0 in order to induce differentiation, the following cytokines are added: Bone Morphogenic Protein 4 (BMP4) (10 ng/ml), Vascular Endothelium Growth Factor 165 (VEGF) (10 ng/ml), Wnt3A (and/or Wnt5A) (10 ng/ml), ActivinA (5 ng/ml) and Inhibitor VIII (2 μM). GSK3 Inhibitor VIII is a specific name for the Merck product (361549), it is also called AR-A014418 or N-(4-Methoxybenzyl)-N′-(5-nitro-1,3-thiazol-2-yl)urea
(§4) On day 2 of differentiation (48 hours old EBs), a new set of cytokines is added in 0.5 ml/well of Stemline II; BMP4 (20 ng/ml), VEGF (30 ng/ml), Wnt3A (and/or Wnt5A) (10 ng/ml), ActivinA (5 ng/ml), Inhibitor VIII (2 μM), Fibroblast Growth Factor α (FGFα) (10 ng/ml), Stem Cell Factor (SCF) (20 ng/ml) and β-Estradiol (0.4 ng/ml).
(§5) NB: Given cytokine concentrations are always the final concentrations of freshly added cytokines—e.g. when cells are fed rather than undergoing complete media change, we add 0.5 ml of 6× cytokines to 2.5 ml already in well to give final total volume of 3 ml with 1× cytokines.
On day 3 of differentiation the EBs are washed in PBS then dissociated using 1 ml/well TrypleSelect 10λ for 10 minutes at 37° C. After addition of 10 ml of PBS, cells are centrifuged for 3 minutes at 1200 rpm, the supernatant is discarded and the cells are resuspended in 3 ml fresh Stemline II and replated at 200×10^3/well of a regular six well tissue culture plate with the following cytokines: BMP4 (20 ng/ml), VEGF (30 ng/ml), FGFα (10 ng/ml), SCF (30 ng/ml), Insulin-like Growth Factor 2 (IGF2) (10 ng/ml), Thrombopoietin (TPO) (10 ng/ml), Heparin (5 ug/ml), Iso Butyl Methyl Xanthine (IBMX) 50 μM and β-Estradiol (0.4 ng/ml).
On day 5 of differentiation a fresh set of cytokines identical to day 3 is added in 0.5 ml/well of Stemline II such that final concentrations of fresh cytokines are those stated for day 3.
On day 7 of differentiation the cells are harvested, centrifuged 3 minutes at 1200 rpm and resuspended in fresh Stemline II medium supplemented with the same set of cytokines as day 3. If the number of cells is above 500×10^3, it is advisable to split the culture as any drastic depletion or major pH increase of the medium can have major repercussion on the differentiation efficiency.
From day 7 to day 10 of differentiation the cell density should be closely monitored in order to maintain the cell number under 10^6 per ml by adding fully supplemented media and splitting into additional wells if required.
On day 9 of differentiation a half dose of day 3 cytokines is added in 0.5 ml/well of Stemline II such that final concentrations of fresh cytokines are half those stated for day 3.
On day 10 of differentiation, the cells are centrifuged 3 minutes at 1200 rpm then re-plated in erythroid liquid culture conditions. i.e. the cells are plated at a density of 100×10^3 cells/well in 3 ml/well of Stemline II supplemented with the following cytokines: Hydrocortisone 10^−6M, SCF (50 ng/ml), Flt3-Ligand (Flt3L) (16.7 ng/ml), BMP4 (6.7 ng/ml), Interleukin 3 (IL3) (6.7 ng/ml), IL11 (6.7 ng/ml), IBMX (50 μM) and Erythropoietin (EPO) 1.3 U/ml.
From day 10 to day 17 (short protocol) or 21 (extended A phase protocol), the above cytokines are renewed every 2 days, added in 0.5 ml of Stemline II, such that final concentrations of fresh cytokines are those stated for day 10. […]

differentiating hPSCs = test: morphology of differentiating cells, Rapid Romanovski staining of cytospin preparations; assay type: cell-based, human; details: for sturdiness of cells, proneness to lysis: SR1 at day 5, SC1 at days 14 and 16
Procedure: At day 17 onward, the erythroid stage of the cells was determined assessment of morphology after Rapid Romanovski staining of cytospin preparations.

hESC line H1 = test: erythroid differentiation culture of hESC line H1; assay type: cell-based, human; details: H1 ESC differentiation
Procedure: as §1, §2
as §3, with “N-(4-Methoxybenzyl)-N′-(5-nitro-1,3-thiazol-2-yl)urea […]” for “N-(4-Methoxybenzyl)-N′-(5-nitro-1,3-thiazol-2-yl)urea”
(§6) From day 7 to day 10 of differentiation the cell density should be closely monitored in order to maintain the cell number under 10^6 per ml by adding fully supplemented media and splitting into additional wells if required. […]

RC9 = test: erythroid differentiation culture of hESC line RC9; assay type: cell-based, human; details: RC9 cell line
Procedure: as §1, §2
as §3, with “N-(4-Methoxybenzyl)-N′-(5-nitro-1,3-thiazol-2-yl)urea […]” for “N-(4-Methoxybenzyl)-N′-(5-nitro-1,3-thiazol-2-yl)urea”
as §6

iPSC = test: erythroid differentiation culture of iPSC; assay type: cell-based, human
Procedure: as §1, §2, §3, §4, §5
On day 3 of differentiation the EBs are washed in PBS then dissociated using 1 ml/well TrypleSelect 10λ for 10 minutes at 37° C. […]
as §6

[2] = test system: genes involved in erythropoiesis; test: qRT-PCR (Taqman) of genes involved in erythropoiesis in differentiating hPSCs; assay type: cell-based, human; details: for expression of globin genes and other markers of definitive hematopoiesis (HBA, HBG, HBB, Runx1, Gata2, HoxB4) and erythropoiesis genes (HOXA9, CD36, NFE2) / necessary reduction in pluripotent markers: hiPSC or hESC, Inhibitor VIII and IBMX; for key molecular markers, mRNA expression: iPSC, InhVIII+IBMX, day 0, 10, 17 and 24
Excerpt: At days 0, 10, 17 and 24 the expression of selected genes of interest by the differentiating cells was monitored by qRT-PCR (Taqman) The gene panel was selected to comprise genes known to be expressed at various stages of erythropoiesis in order to evaluate the degree of differentiation of the hPSCs.

globins = test: HPLC analysis of globin protein expression profile of differentiated hPSCs; assay type: cell-based, human; details: full differentiation process in presence of both GSK3β inhibitor and IBMX
Procedure: At day 24, 28 or onward the globin protein expression profile was analysed by High Pressure Liquid Chromatography to evaluate the level of switch from primitive to definitive hematopoiesis.

Cc1cc(Nc2ncc3c(n2)N(C)C(=O)N(c2cc(NC(=O)c4cccc(C(F)(F)F)c4)ccc2C)C3)n(C)n1 [SC1]
rate of cell amplification in the late stage of the method [1]: greater rate of cell amplification; also recorded: enhances or increases the rate of cell amplification | sturdiness of cells, proneness to lysis (differentiating hPSCs): sturdier and less prone to lysis; also recorded: more “sturdy” and less prone lysis

Cc1c[nH]c(-c2cnc(NCCNc3ccc(C#N)cn3)nc2-c2ccc(Cl)cc2Cl)n1 [CHIR99021]
cell amplification, combination of GSK3β inhibitor and IBMX [1]: synergistic | quality and quantity of erythrocytic cells produced [1]: marked improvement | replacement of recombinant Wnt3A by GSK3β inhibitor [1]: could not reproducibly replace Wnt3a | effect on hESC versus hiPSC lines ([1]; compared to Inhibitor VIII): stronger effect on hESC than hiPSC lines | potency: concentration of GSK3β inhibitor [1]: 0.2 µM

COc1ccc(CNC(=O)Nc2ncc([N+](=O)[O-])s2)cc1 [Inhibitor VIII, N-(4-methoxybenzyl)-N′-(5-nitro-1,3-thiazol-2-yl)urea]
cell amplification, combination of GSK3β inhibitor and IBMX [1]: synergistic | quality and quantity of erythrocytic cells produced [1]: marked improvement | overall amplification of differentiating erythropoietic cultures, side by side comparison [1]: inconsistency. Results consistently show a positive effect of Inhibitor VIII and IBMX. The gain provided by a prolonged | total fold amplification of erythroid differentiation culture ([1]; absence or presence of inhibitor VIII, hESC lines RC9 and H1, iPS line): increases cell numbers in multiple lines | replacement of recombinant Wnt3A by GSK3β inhibitor [1]: could not reproducibly replace Wnt3a | potency: concentration of GSK3β inhibitor [1]: 2 µM | expansion in cell number / yield of differentiated cells [1]: increases the yield of differentiated cells | expansion in cell number / yield of differentiated cells ([1]; listed as InhVIII): increases the expansion in cell number | replacement of Activin A (hESC line H1): can replace Activin A | replacement of Activin A (RC9): wasn't observed | replacement of Activin A (iPSC; iPSC G cell line): wasn't observed | expression of globin genes and other markers of definitive hematopoiesis (HBA, HBG, HBB, Runx1, Gata2, HoxB4) and erythropoiesis genes (HOXA9, CD36, NFE2) [2]: increase expression | necessary reduction in pluripotent markers [2]: do not affect | key molecular markers, mRNA expression [2]: Increase key molecular markers

CC(C)n1cnc2c(NCCc3ccc(O)cc3)nc(-c3csc4ccccc34)nc21 [SR1]
rate of cell amplification in the late stage of the method [1]: greater rate of cell amplification; also recorded: enhances or increases the rate of cell amplification | sturdiness of cells, proneness to lysis (differentiating hPSCs): sturdier and less prone to lysis; also recorded: more “sturdy” and less prone to lysis

O=C1Nc2cc(Br)ccc2/C1=C1/Nc2ccccc2/C1=N\O [BiO]
cell amplification, combination of GSK3β inhibitor and IBMX [1]: does not have this effect

CC(C)Cn1c(=O)n(C)c(=O)c2[nH]cnc21 [IBMX, 3-isobutyl-1-methylxanthine]
cell amplification, combination of GSK3β inhibitor and IBMX [1]: synergetic effect on cell amplification | expansion, cumulative fold amplification over time ([1]; H1 (hESC) or hiPSC, combinations of GSK3β inhibitors and IBMX): further increases expansion | cell numbers in the culture ([1]; IBMX added to culture): can increase cell numbers | overall amplification of differentiating erythropoietic cultures, side by side comparison [1]: inconsistency. Results consistently show a positive effect of Inhibitor VIII and IBMX. The gain provided by a prolonged | stage of addition inducing maximum amplification ([1]; added to culture medium throughout day 3 and 17): most effective | expression of globin genes and other markers of definitive hematopoiesis (HBA, HBG, HBB, Runx1, Gata2, HoxB4) and erythropoiesis genes (HOXA9, CD36, NFE2) [2]: increase expression | necessary reduction in pluripotent markers [2]: do not affect | key molecular markers, mRNA expression [2]: Increase key molecular markers | cells morphology and maturation (differentiating hPSCs; addition of IBMX and GSK3β inhibitors, compared to the control culture conditions): did not have any negative effect | morphological appearance of cells (differentiating hPSCs; combination of GSK3β inhibitor and IBMX): morphologically more intact and robust | HPLC globin profile (globins): almost similar to the cells of fetal origin

B1: Activin A: cytokine added at 5 ng/ml in the early stage of differentiation (protein, UniProt P08476 311-426, looked up)
Inhibin beta A chain: GLECDGKVNICCKKQFFVSFKDIGWNDWIIAPSGYHANYCEGECPSHIAGTSGSSLSFHSTVINHYRMRGHSPFANLKSCCVPTKLRPMSMLYYDDGQNIIKKDIQNMIVEECGCS
effect of an increased dose on differentiation ([1]; data not shown): doesn't have any beneficial effect | differentiation efficiency in the absence of Activin A (RC9): markedly hinders the differentiation efficiency | requirement for efficient differentiation (iPSC; iPSC): required for efficient differentiation | differentiation efficiency in the absence of Activin A (iPSC; iPSC G cell line): markedly hinders the differentiation efficiency
